# “Also recorded” adds a separate entry of the source. Where two headings read alike, the source gives them in different places.
# Key:
# HCC = conditions: syngeneic orthotopic and xenograft models; cited from earlier work
# [1] = test system: advanced unresectable HCC; conditions: cited from earlier work
# [2] = test system: advanced HCC and CPB cirrhosis; assay: Phase II randomized, double-blind, placebo-controlled study of namodenoson in advanced HCC with CPB cirrhosis (NCT02128958); type: in vivo, human
# Excerpt: The diagnosis of HCC in subjects without underlying cirrhosis at the time of diagnosis required cytology and/or histology; for subjects with underlying cirrhosis at the time of diagnosis, HCC diagnosis was established according to the American Association for the Study of Liver Diseases practice guidelines algorithm [Marrero J. A., et al., Hepatology. 2018; 68:723-750]. For subjects who had tolerated sorafenib, ≥3 weeks of prior treatment was required, terminating at ≥2 weeks before study entry. Inclusion criteria included: ECOG PS≤2; having CPB cirrhosis (i.e., CP score 7-9); aspartate aminotransferase (AST) and alanine aminotransferase (ALT) levels ≤5 times the upper limit of normal (ULN); total bilirubin, ≤3.0 mg/dL; serum albumin, ≥2.8 g/dL; prothrombin time (PT), ≤6 s longer than control; serum creatinine, ≤2.0 mg/dL; absolute neutrophil count, […]; and platelet count, […]. Exclusion criteria included: the presence of hepatic encephalopathy; and gastrointestinal hemorrhage requiring transfusion occurring within the past 4 weeks.
# This was a multicenter, randomized, double-blind, placebo-controlled clinical trial (ClinicalTrials.gov identifier NCT02128958). The trial was conducted at 15 sites in Israel, Europe, and the United States. Subjects were enrolled by the participating centers and were randomly assigned 2:1, using a central randomization schedule generated by an independent biostatistician with no stratification prior to randomization. Patients were randomized to either namodenoson (Cl-IB-MECA) 25 mg or matching placebo, administered orally every 12 hours until discontinuation due to intolerance, withdrawal of consent, or death. Though treatment was administered in a continuous manner, the treatment period was divided into 4-week cycles for the purpose of data recording. No crossover was initially allowed; however, by protocol amendment, patients that continued with blinded treatment were offered namodenoson (25 mg twice daily) upon unblinding of the treatment assignments. All study site personnel were blinded to patients' treatment throughout the study period. The study was approved by all relevant national regulatory authorities and local Ethics Committees/Institutional Review Boards. The study was conducted in accordance with the Declaration of Helsinki, and written informed consent was obtained from all the patients.
# The primary endpoint of the study was overall survival (OS). Secondary endpoints were progression-free survival (PFS), overall response rate (ORR), disease control rate (DCR), and safety. […] 2019, 70:1262-1277]. Disease response assessment was evaluated locally by 2 independent blinded radiologists using Response Evaluation Criteria in Solid Tumors (RECIST) version 1.1 [Eisenhauer E. A., et al. Eur. J. Cancer. 2009; 45:228-247]. Tumor status was assessed at baseline and every 8 weeks thereafter by computed tomography scan or magnetic resonance imaging. Safety was monitored through assessments of AEs using the US National Cancer Institute's Common Terminology Criteria for Adverse Events (CTCAE) v4.03. Changes from baseline in vital signs, clinical laboratory parameters, electrocardiograms, physical examinations, and ECOG PS were also assessed. AFP levels were assessed at baseline and every 4 weeks thereafter, as were laboratory parameters associated with hepatic dysfunction and cirrhosis, such as serum ALT, AST, bilirubin, and albumin levels, PT, and international normalized ratio. ALBI scores were calculated from the albumin and bilirubin levels, as previously described [Johnson P. J., et al. J. Clin. Oncol. 2015; 33:550-558].
# Power calculation determined that 75 deaths, assuming a hazard ratio of 0.5, would provide 80% power for the log-rank test at a significance level of 0.05. Primary efficacy analyses were performed on the ITT population. Descriptive statistics were used to summarize patient/tumor characteristics and safety. […]
# [3] = 9 patients with Child-Pugh Score 9
# [4] = 34 namodenoson-treated patients with post-baseline assessment
# [5] = n = 34 with at least 1 post-baseline assessment
# [6] = patients with Child-Pugh score 7
# [7] = patients with Child-Pugh score 8
smiles,measurement,setting,value
"CNC(=O)[C@H]1O[C@@H](n2cnc3c(NCc4cccc(I)c4)nc(Cl)nc32)[C@H](O)[C@@H]1O [namodenoson, 2-chloro-N^6-(3-iodobenzyl)-adenosine-5′-N-methyluronamide]",effect towards HCC,HCC,induces an apoptotic effect
same,Median overall survival (OS),[1]; CPB patients (28%),8.1 months
same,safety and tolerability,[1]; in vivo,safe and well-tolerated
same,Median overall survival (OS),"[1]; whole study population, 67% failed prior sorafenib",7.8 months
same,treatment-related deaths,[2]; 25 mg BID oral,No treatment-related deaths
same,median OS,[2]; [3],3.5 months
same,median PFS,[2]; [3],2.2 months
same,"PR achieved, number of patients",[2]; [4],3 patients
same,"PR achieved, share of patients",[2]; [4],9%
same,patients who experienced CR,[2]; [4],one patient
same,OS HR vs placebo,"[2]; Child-Pugh score 7, 95% CI 0.45-1.43, p=0.46",0.81
same,PFS HR vs placebo,"[2]; Child-Pugh score 7, 95% CI 0.51-1.55, p=0.67",0.89
same,PFS HR vs placebo,"[2]; Child-Pugh score 8, 95% CI 0.23-2.17, p=0.53",0.71
same,OS HR vs placebo,"[2]; Child-Pugh score 8, 95% CI 0.28-2.77, p=0.83",0.88
same,survival of single patient in Open Label Extension,"[2]; advanced metastatic HCC, CPB7, 25 mg orally twice a day",survived five years
same,response of single patient in Open Label Extension,"[2]; advanced metastatic HCC, CPB7, 25 mg orally twice a day for 5 years",Complete Response (CR); also recorded: complete remission of the cancer
same,mean serum albumin levels and albumin-bilirubin (ALBI) scores,[2]; in vivo,did not change significantly
same,withdrawals and dose reductions attributable to namodenoson,"[2]; in vivo, po",no patients withdrew from the study and no dose reductions were attributable to namodenoson
same,Best observed response (RECIST 1.1): CR,[2]; [5],1 (2.94%) n (%)
same,Best observed response (RECIST 1.1): PD,[2]; [5],14 (41.2%) n (%)
same,Best observed response (RECIST 1.1): PR,[2]; [5],3 (8.8%) n (%)
same,Best observed response (RECIST 1.1): SD,[2]; [5],17 (50.0%) n (%)
same,12-month OS rate,"[2]; p=0.028 vs placebo, FIG. 1: patients with Child-Pugh Score 7, 25 mg BID",44%
same,median OS,[2]; [6],6.9 months
same,median PFS,[2]; [6],3.5 months
same,OS,[2]; [7],3.3 months
same,PFS,[2]; [7],2.1 months
same,"clinical benefits of treatment (scan of chest, abdomen, pelvis)","[2]; single patient, advanced metastatic HCC, CPB7, 25 mg orally twice a day","disappearance of ascites, normal liver function, and the disappearance of peritoneal carcinomatosis"
same,progression-free survival (PFS) superiority over placebo,[2]; whole study population,no superiority
same,median OS,"[2]; whole study population, 25 mg BID oral",4.1 months
same,OS hazard ratio [HR] vs placebo,"[2]; whole study population, 95% CI 0.49-1.38, p=0.46",0.82
